Measured values from US9937250B2, “Immunogenic tumor associated stromal cell antigen peptides and methods of their use” (University of Pittsburgh—Of the Commonwealth System of …, priority 2011, dated 2018).

Legend:
[1] = tested on: B16 melanoma; assay: Therapeutic vaccination of established B16 melanoma (tumor growth, survival); assay type: in vivo, HHD or C57BL/6 (B6) mice; details: for Survival of B16-bearing HHD mice: followed through 60 days post-tumor inoculation (FIG. 11C); for B16 tumor growth in HHD mice: therapeutic vaccines, HHD mice (FIG. 11B)
Experimental: FIGS. 11A-11C show a series of graphs illustrating that DC.IL12 vaccines containing TASA-derived peptides are therapeutic against MC38 colon carcinomas and B16 melanomas in HHD mice. In FIG. 11A, HHD mice bearing established day seven subcutaneous MC38 tumors (right flank) were left untreated, or they were vaccinated in the left flank with control DC.IL12 or DC.IL12 pulsed with an equimolar pool (10 μM each) of the following TASA-derived peptides: DLK1326-334, EPhA2883-891, HBB31-39, NRP1869-877, PDGFRβ890-898, RGS55-13 and TEM1691-700. Identical booster vaccines were provided on day 14 post-tumor inoculation. As indicated, two vaccine cohorts were treated with depleting anti-CD4 or anti-CD8 monoclonal antibodies to evaluate the impact of these T cell subsets on therapy outcome. Tumor growth was monitored every 3-4 days through d28. In FIG. 11B, Female HHD or C57BL/6 (B6) mice were inoculated subcutaneously in the right flank with 1×10^5B16 (HLA-A2^neg) tumor cells. […] The mice then received vaccines consisting of isologous control or peptide-pulsed DC.IL12 cells subcutaneously in the left flank on days 10 and 17 (post-tumor inoculation). In cases where more than one peptide was identified for a given target antigen, an equimolar pool of the indicated peptides (each 10 μM) was pulsed onto DC.IL12 and used for vaccination. Tumor size (mean+/−SD) was monitored every 3-4 days through day 34. In FIG. 11A and FIG. 11B, mean tumor area+/−SD is reported for 5 animals/cohort. Data are the representative of those obtained in two independent experiments in each case. *p<0.05 versus DC only on the indicated days. In FIG. 11C, HHD mice bearing subcutaneous B16 melanomas were treated as described in FIG. 11B and followed through day 60 post-tumor inoculation. Data are reported in a Kaplan-Meier plot depicting overall percentage of surviving animals over time. *p<0.02 versus DC only; **p<0.002 versus DC only (with refined p-values for differences between treatment cohorts reported in Table 6). Data are cumulative for three independent experiments performed.
Vaccine Experiments. For prophylactic experiments, HHD mice were immunized subcutaneously on the right flank with 100 μl PBS or PBS containing 10^6 syngenic DC.IL12 cells that had been untreated or pre-pulsed for 4 h at 37° C. with 10 μM synthetic peptide(s). […] For analysis of tumor cellular composition in repeat experiments, MC38 tumors were isolated by surgical resection 10 days after tumor inoculation and prepared for fluorescence imaging, as described below. […] In some assays, as indicated, in vivo antibody depletions (on days 6, 13 and 20 post-tumor inoculation to assess early involvement or on days 60 and 67 or 180 and 187 to assess late involvement) of protective CD4^+ T cells or CD8^+ T cells were performed and monitored as previously described (Zhao et al., Mol Ther., 19:805-814, 2011). In all cases, tumor size (area) was monitored every 3-4 days and is reported as mean+/−SD in mm^2.
To analyze the status and specificity of Tc1 cells, HHD mice rendered free of B16 melanoma after therapeutic vaccination with DLK or RGS5 peptide-based vaccines were sacrificed 60 days after tumor inoculation. Fresh MACS-isolated spleen CD8^+ T cells were then analyzed for reactivity against HLA-A2^+PDGFRβ^+CD31^neg pericytes, HLA-A2^+PDGFRβ^negCD31^+ VEC or HLA-A2^neg tumor cells flow-sorted from day 19 B16 tumors growing progressively in untreated HHD mice. […]

[2] = tested on: MC38 colon carcinoma; assay: MC38 protection (prophylactic vaccination) model; assay type: in vivo, HHD mice; details: immunization days -14 and -7, tumor challenge day 0 (FIG. 9B)
Description: FIGS. 9A-9B show a series of graphs illustrating induction of specific/protective CD8^+ T cells reactive against TASA as a consequence of DC/peptide-based vaccination. In FIG. 9A, HHD mice (five animals/cohort) were vaccinated twice (d-14, d-7) subcutaneously with PBS or with isologous DC.IL12 pulsed with PBS or synthetic peptides (Table 6) derived from the indicated TASA. In cases where more than 1 peptide was identified for a given target antigen, an equimolar pool of the indicated peptides (each 10 μM) was pulsed onto DC.IL12 and used for vaccination in the relevant cohort. One week after the second immunization, spleens were harvested and splenic CD8^+ T cells isolated using MACS-beads (Miltenyi). T cells were stimulated in vitro for 48 h using the HLA-A2^+ T2 cell line pulsed with relevant TASA vs. irrelevant HIV-nef190-198 ([…]; ref. 24) peptides. Cell-free supernatants were then recovered and IFN-γ levels by ELISA. Data are reported as mean+/−SD for triplicate ELISA determinations, and are representative of 3 independent experiments performed. *p<0.05 vs. HIV-nef control peptide responses. In FIG. 9B, HHD mice were vaccinated twice (days −14 and −7; right flank) subcutaneously with PBS or with isologous DC.IL12 pulsed with PBS or synthetic TASA peptides as indicated in FIG. 1A. In cases where more than 1 peptide is identified for a given target antigen, an equimolar pool of the indicated peptides (each 10 μM) was pulsed onto DC.IL12 and used for vaccination in the relevant cohort. One week after the booster vaccine (i.e. day zero), animals were challenged subcutaneously on their left flank with 2×10^6 MC38 colon carcinoma cells. Tumor growth was then monitored every 3-4 days through day 24. All data represent mean tumor area (in mm^2)+/−SD determined from 5 mice/cohort, and are representative of three independent experiments performed. *p<0.05 versus DC only on the indicated days.
Vaccine Experiments. For prophylactic experiments, HHD mice were immunized subcutaneously on the right flank with 100 μl PBS or PBS containing 10^6 syngenic DC.IL12 cells that had been untreated or pre-pulsed for 4 h at 37° C. with 10 μM synthetic peptide(s). Immunizations occurred on days −14 and −7, with mice subsequently receiving injections of MC38 (2×10^6) tumor cells in the left flank on d0. In all cases, treatment groups contained 5 mice per cohort. For analysis of tumor cellular composition in repeat experiments, MC38 tumors were isolated by surgical resection 10 days after tumor inoculation and prepared for fluorescence imaging, as described below. […] Mice were then untreated or treated with control, syngenic DC.IL12 or DC.IL12 (10^6 cells injected subcutaneously in the left flank on days 7 and 14) pulsed with synthetic TBVA peptides. In some assays, as indicated, in vivo antibody depletions (on days 6, 13 and 20 post-tumor inoculation to assess early involvement or on days 60 and 67 or 180 and 187 to assess late involvement) of protective CD4^+ T cells or CD8^+ T cells were performed and monitored as previously described (Zhao et al., Mol Ther., 19:805-814, 2011). In all cases, tumor size (area) was monitored every 3-4 days and is reported as mean+/−SD in mm^2.
The DLK1, EphA2, HBB, NG2, NRP1, NRP2, PDGFRβ, PSMA, RGS5, TEM1, VEGFR1 and VEGFR2 antigens were expressed in situ by blood vessel cells in the MC38 colon carcinoma TME (FIG. 14). Protection of HHD mice against a challenge with HLA-A2^neg MC38 tumor cells injected subcutaneously on day zero was assayed with immunization with TBVA-derived peptides on days −14 and −7. […]

| Substance | Survival of B16-bearing HHD mice [1] | B16 tumor growth in HHD mice [1] | Protection against HLA-A2neg MC38 tumor challenge [2] |
| --- | --- | --- | --- |
| EphA2: EphA2-derived peptide 883-891 pulsed onto DC or DC.IL12 (TLADFDPRV; listed as Homo sapiens) | significant survival benefits | effective in suppressing tumor growth | effective in preventing HLA-A2^neg MC38 tumor establishment or they resulted in the regression of tumors |
| RGS5: RGS5-derived peptide 5-13 pulsed onto DC or DC.IL12 (LAALPHSCL; listed as Homo sapiens) | significant survival benefits | effective in suppressing tumor growth | effective in preventing HLA-A2^neg MC38 tumor establishment or they resulted in the regression of tumors |
| TEM1: TEM1-derived peptide 691-700 pulsed onto DC or DC.IL12 (LLVPTCVFLV; listed as Homo sapiens) | significant survival benefits | – | effective in preventing HLA-A2^neg MC38 tumor establishment or they resulted in the regression of tumors |
